# Experimental data from US11058780B2, “Palpable marker composition” (TECHNICAL UNIVERSITY OF DENMARK, priority 2016, dated 2021).
# Assay: Solubility in ethanol and doping of iodo-SAIB into SAIB
# Assay type: physicochemical
# Settings: neat LOIB
smiles,measurement,value
"CC(C)C(=O)OC[C@H]1O[C@@H](O[C@H]2[C@H](OC(=O)C(C)C)[C@@H](OC(=O)C(C)C)C(OC(=O)C(C)C)O[C@@H]2COC(=O)C(C)C)[C@H](OC(=O)C(C)C)[C@@H](OC(=O)C(C)C)[C@H]1OC(=O)C(C)C (stereo partly drawn) [LOIB, α,β Lactose Octaisobutyrate]",solubility in anhydrous EtOH,readily dissolves
